{"source": "paper PMC5218480", "about": "(PLoS ONE, 2017)", "system": "MV-4-11 cells", "assay": "Gene expression microarray analysis (Affymetrix PrimeView) and GSEA", "assay_type": "cell-based, human", "design": "RFU PODN (11730768_x_at) / Fold change /veh PODN (11730768_x_at) / RFU LINC00158 (11744669_a_at) / Fold change /veh LINC00158 (11744669_a_at) / RFU DUSP10 (11751237_a_at) / Fold change /veh DUSP10 (11751237_a_at) / RFU ID3 (11757404_x_at) / Fold change /veh ID3 (11757404_x_at) / RFU PLEKHG5 (11737974_s_at) / Fold change /veh PLEKHG5 (11737974_s_at) / RFU LRRC4B (11730491_at) / Fold change /veh LRRC4B (11730491_at) / RFU GIMAP4 (11747438_a_at) / Fold change /veh GIMAP4 (11747438_a_at) / RFU KRT8 (11758183_x_at) / Fold change /veh KRT8 (11758183_x_at) / RFU CNN1 (11734310_a_at) / Fold change /veh CNN1 (11734310_a_at) / RFU VPS37D (11726825_at) / Fold change /veh VPS37D (11726825_at) / RFU C10orf10 (11716522_x_at) / Fold change /veh C10orf10 (11716522_x_at) / RFU KIR2DL2 /// KIR2DL4 /// KIR2DL5A /// KIR2DL5B /// KIR2DS1 /// KIR2DS2 /// KIR2DS3 /// KIR2DS4 /// KIR3DL3 /// KIR3DL3 /// KIR3DS1 (11738374_at) / Fold change /veh KIR2DL2 /// KIR2DL4 /// KIR2DL5A /// KIR2DL5B /// KIR2DS1 /// KIR2DS2 /// KIR2DS3 /// KIR2DS4 /// KIR3DL3 /// KIR3DL3 /// KIR3DS1 (11738374_at) / RFU C1QL1 (11718748_at) / Fold change /veh C1QL1 (11718748_at) / RFU TMPRSS4 (11747572_a_at) / Fold change /veh TMPRSS4 (11747572_a_at) / RFU HAMP (11756126_x_at) / Fold change /veh HAMP (11756126_x_at) / RFU RNFT2 (11725882_a_at) / Fold change /veh RNFT2 (11725882_a_at) / RFU NR4A2 (11747474_a_at) / Fold change /veh NR4A2 (11747474_a_at) / RFU ABCC12 (11746883_a_at) / Fold change /veh ABCC12 (11746883_a_at) / RFU TMEM136 (11760407_x_at) / Fold change /veh TMEM136 (11760407_x_at) / RFU CLDN22 /// WWC2 (11732394_at) / Fold change /veh CLDN22 /// WWC2 (11732394_at) / RFU HLA-DPB1 (11760878_x_at) / Fold change /veh HLA-DPB1 (11760878_x_at) / RFU SPINT1 (11716480_a_at) / Fold change /veh SPINT1 (11716480_a_at) / RFU GAP43 (11754022_s_at) / Fold change /veh GAP43 (11754022_s_at) / RFU A4GNT (11735810_at) / Fold change /veh A4GNT (11735810_at) / RFU PRB3 (11715151_x_at) / Fold change /veh PRB3 (11715151_x_at) / RFU TUBB4B (11761932_at) / Fold change /veh TUBB4B (11761932_at) / RFU CAPN14 (11732068_a_at) / Fold change /veh CAPN14 (11732068_a_at) / RFU TMCC2 (11721928_a_at) / Fold change /veh TMCC2 (11721928_a_at) / RFU IRGQ (11745062_a_at) / Fold change /veh IRGQ (11745062_a_at) / RFU FAM174B (11720279_a_at) / Fold change /veh FAM174B (11720279_a_at) / RFU TMPRSS4 (11748680_a_at) / Fold change /veh TMPRSS4 (11748680_a_at) / RFU FAM212B (11763350_a_at) / Fold change /veh FAM212B (11763350_a_at) / RFU PLEKHG5 (11743358_a_at) / Fold change /veh PLEKHG5 (11743358_a_at) / RFU ZSCAN30 (11745921_a_at) / Fold change /veh ZSCAN30 (11745921_a_at) / RFU CMKLR1 (11741424_a_at) / Fold change /veh CMKLR1 (11741424_a_at) / RFU LOC101060620 /// MAPK8IP1 (11723275_at) / Fold change /veh LOC101060620 /// MAPK8IP1 (11723275_at) / RFU SPTSSB (11747773_x_at) / Fold change /veh SPTSSB (11747773_x_at) / RFU PRSS12 (11739890_at) / Fold change /veh PRSS12 (11739890_at) / RFU BIN1 (11741810_x_at) / Fold change /veh BIN1 (11741810_x_at) / RFU WNT11 (11732464_a_at) / Fold change /veh WNT11 (11732464_a_at) / RFU C10orf10 (11716521_a_at) / Fold change /veh C10orf10 (11716521_a_at) / RFU C5orf56 (11738089_at) / Fold change /veh C5orf56 (11738089_at) / RFU CYB561 (11721691_x_at) / Fold change /veh CYB561 (11721691_x_at) / RFU ANKRD19P (11752326_a_at) / Fold change /veh ANKRD19P (11752326_a_at) / RFU OR2T12 /// OR2T33 /// OR2T8 (11738714_s_at) / Fold change /veh OR2T12 /// OR2T33 /// OR2T8 (11738714_s_at) / RFU VCAN (11748164_a_at) / Fold change /veh VCAN (11748164_a_at) / RFU JSRP1 (11732532_at) / Fold change /veh JSRP1 (11732532_at) / RFU KRTAP10-11 (11738290_x_at) / Fold change /veh KRTAP10-11 (11738290_x_at) / RFU MYO3A (11730013_a_at) / Fold change /veh MYO3A (11730013_a_at) / RFU EBF3 (11725865_a_at) / Fold change /veh EBF3 (11725865_a_at) / RFU CAMK2N1 (11719241_x_at) / Fold change /veh CAMK2N1 (11719241_x_at) / RFU C5orf56 (11738088_a_at) / Fold change /veh C5orf56 (11738088_a_at) / RFU OLFML3 (11715873_a_at) / Fold change /veh OLFML3 (11715873_a_at) / RFU LOC100653217 /// NTM (11731650_a_at) / Fold change /veh LOC100653217 /// NTM (11731650_a_at) / RFU MAPK11 (11762145_a_at) / Fold change /veh MAPK11 (11762145_a_at) / RFU FIZ1 (11724087_x_at) / Fold change /veh FIZ1 (11724087_x_at) / RFU OASL (11726364_x_at) / Fold change /veh OASL (11726364_x_at) / RFU SOX15 (11748057_x_at) / Fold change /veh SOX15 (11748057_x_at) / RFU CD79A (11719716_a_at) / Fold change /veh CD79A (11719716_a_at) / RFU HIST1H1D (11736915_at) / Fold change /veh HIST1H1D (11736915_at) / RFU CASKIN2 (11723855_a_at) / Fold change /veh CASKIN2 (11723855_a_at) / RFU LOC730098 (11760151_x_at) / Fold change /veh LOC730098 (11760151_x_at) / RFU OR4N2 (11742367_at) / Fold change /veh OR4N2 (11742367_at) / RFU PRRT2 (11749266_a_at) / Fold change /veh PRRT2 (11749266_a_at) / RFU SNX32 (11753110_a_at) / Fold change /veh SNX32 (11753110_a_at) / RFU CDHR5 (11726645_a_at) / Fold change /veh CDHR5 (11726645_a_at) / RFU RCAN1 (11760418_a_at) / Fold change /veh RCAN1 (11760418_a_at) / RFU FAM167A (11723789_a_at) / Fold change /veh FAM167A (11723789_a_at) / RFU FAM26E (11764081_at) / Fold change /veh FAM26E (11764081_at) / RFU ISYNA1 (11749810_s_at) / Fold change /veh ISYNA1 (11749810_s_at) / RFU ACY1 (11761880_at) / Fold change /veh ACY1 (11761880_at) / RFU 11764098_at / Fold change /veh 11764098_at / RFU SAMD14 (11745864_x_at) / Fold change /veh SAMD14 (11745864_x_at) / RFU NPB (11741838_a_at) / Fold change /veh NPB (11741838_a_at) / RFU TMPRSS6 (11731388_a_at) / Fold change /veh TMPRSS6 (11731388_a_at) / RFU KRTAP10-2 (11738614_at) / Fold change /veh KRTAP10-2 (11738614_at) / RFU ARHGAP8 /// PRR5-ARHGAP8 (11727945_x_at) / Fold change /veh ARHGAP8 /// PRR5-ARHGAP8 (11727945_x_at) / RFU KRTAP5-7 /// NADSYN1 (11734609_at) / Fold change /veh KRTAP5-7 /// NADSYN1 (11734609_at) / RFU RASL12 (11751679_a_at) / Fold change /veh RASL12 (11751679_a_at) / RFU CDKN2B (11736163_a_at) / Fold change /veh CDKN2B (11736163_a_at) / RFU PRF1 (11729649_at) / Fold change /veh PRF1 (11729649_at) / RFU, ZNF638 /// ZNF638-IT1 / Fold change vs veh, ZNF638 /// ZNF638-IT1 / RFU, PANK3 / Fold change vs veh, PANK3 / RFU, SH3YL1 / Fold change vs veh, SH3YL1 / RFU, ZEB2 / Fold change vs veh, ZEB2 / RFU, NRIP1 / Fold change vs veh, NRIP1 / RFU, PTTG1IP / Fold change vs veh, PTTG1IP / RFU, CAPN2 / Fold change vs veh, CAPN2 / RFU, MED14 / Fold change vs veh, MED14 / RFU, SNORA58 / Fold change vs veh, SNORA58 / RFU, C1orf63 / Fold change vs veh, C1orf63 / RFU, LRRFIP1 / Fold change vs veh, LRRFIP1 / RFU, NDUFAF7 / Fold change vs veh, NDUFAF7 / RFU, SLC12A2 / Fold change vs veh, SLC12A2 / RFU, IBTK / Fold change vs veh, IBTK / RFU, ESF1 / Fold change vs veh, ESF1 / Fold change vs veh, TMEM50B / RFU, TAOK1 / Fold change vs veh, TAOK1 / RFU, ACBD3 / Fold change vs veh, ACBD3 / RFU, TMA16 / Fold change vs veh, TMA16 / RFU, RWDD3 / Fold change vs veh, RWDD3 / RFU, BCAT1 / Fold change vs veh, BCAT1 / RFU, EDEM3 / Fold change vs veh, EDEM3 / RFU, TMEM33 / Fold change vs veh, TMEM33 / RFU, WDR75 / Fold change vs veh, WDR75 / RFU, AHCTF1 / Fold change vs veh, AHCTF1 / RFU, TFRC / Fold change vs veh, TFRC / RFU, ZDHHC17 / Fold change vs veh, ZDHHC17 / RFU, NOM1 / Fold change vs veh, NOM1 / RFU, ARL8B / Fold change vs veh, ARL8B / RFU, ZBTB11 / Fold change vs veh, ZBTB11 / RFU, TAMM41 / Fold change vs veh, TAMM41 / RFU, KIAA1704 /// LOC100996395 / Fold change vs veh, KIAA1704 /// LOC100996395 / RFU, ING1 / Fold change vs veh, ING1 / RFU, TRMT61B / Fold change vs veh, TRMT61B / RFU, FUBP3 / Fold change vs veh, FUBP3 / RFU, TP53 / Fold change vs veh, TP53 / RFU, TNKS2 / Fold change vs veh, TNKS2 / RFU, ZFP14 / Fold change vs veh, ZFP14 / RFU, ACTR2 / Fold change vs veh, ACTR2 / RFU, PPP3R1 / Fold change vs veh, PPP3R1 / RFU, PIK3R1 / Fold change vs veh, PIK3R1 / RFU, HNRNPA1 / Fold change vs veh, HNRNPA1 / RFU, RNF170 / Fold change vs veh, RNF170 / RFU, ZNF28 / Fold change vs veh, ZNF28 / RFU, RNGTT / Fold change vs veh, RNGTT / RFU, OGT / Fold change vs veh, OGT / RFU, BRD1 / Fold change vs veh, BRD1 / RFU, MARS / Fold change vs veh, MARS / RFU, ZNF655 / Fold change vs veh, ZNF655 / RFU, FAHD1 / Fold change vs veh, FAHD1 / RFU, BDP1 / Fold change vs veh, BDP1 / RFU, LRRCC1 / Fold change vs veh, LRRCC1 / RFU, ARID1A / Fold change vs veh, ARID1A / RFU, ZNF146 / Fold change vs veh, ZNF146 / RFU, ZNF330 / Fold change vs veh, ZNF330 / RFU, GPN3 / Fold change vs veh, GPN3 / RFU, C9orf123 / Fold change vs veh, C9orf123 / RFU, N4BP2L2 / Fold change vs veh, N4BP2L2 / RFU, ARFIP1 / Fold change vs veh, ARFIP1 / RFU, FAM179B / Fold change vs veh, FAM179B / RFU, BCL10 / Fold change vs veh, BCL10 / RFU, UHRF1BP1L / Fold change vs veh, UHRF1BP1L / RFU, BET1 / Fold change vs veh, BET1 / RFU, CNOT2 / Fold change vs veh, CNOT2 / RFU, ZNF268 / Fold change vs veh, ZNF268 / Fold change vs veh, ZNF507 / RFU, DGCR2 / Fold change vs veh, DGCR2 / RFU, WDSUB1 / Fold change vs veh, WDSUB1 / Fold change vs veh, HSP90B1 /// MIR3652 / RFU, ADSS / Fold change vs veh, ADSS / RFU, GK / Fold change vs veh, GK / RFU, ZNF148 / Fold change vs veh, ZNF148 / RFU, TAF9 / Fold change vs veh, TAF9 / RFU, SLC1A5 / Fold change vs veh, SLC1A5 / RFU, SLMO2 / Fold change vs veh, SLMO2 / RFU, ABCC4 / Fold change vs veh, ABCC4 / RFU, LOC101060439 /// RAP1B / Fold change vs veh, LOC101060439 /// RAP1B / RFU, RFX7 / Fold change vs veh, RFX7 / RFU, GTPBP10 / Fold change vs veh, GTPBP10 / RFU, CNEP1R1 / Fold change vs veh, CNEP1R1 / RFU, BIVM-ERCC5 /// ERCC5 / Fold change vs veh, BIVM-ERCC5 /// ERCC5 / RFU, ILF3 / Fold change vs veh, ILF3 / RFU 11762660_at / Fold change /veh 11762660_at / RFU VCAN (11757783_s_at) / Fold change /veh VCAN (11757783_s_at) / RFU DDX43 (11728927_at) / Fold change /veh DDX43 (11728927_at) / RFU KRT8 (11758188_x_at) / Fold change /veh KRT8 (11758188_x_at) / RFU NKD1 (11759106_at) / Fold change /veh NKD1 (11759106_at) / RFU SRD5A1 (11742802_a_at) / Fold change /veh SRD5A1 (11742802_a_at) / RFU TPSAB1 /// TPSB2 (11721975_s_at) / Fold change /veh TPSAB1 /// TPSB2 (11721975_s_at) / RFU GSTM3 (11746129_a_at) / Fold change /veh GSTM3 (11746129_a_at) / RFU IL23R (11737362_x_at) / Fold change /veh IL23R (11737362_x_at) / RFU TMEM51 (11727254_a_at) / Fold change /veh TMEM51 (11727254_a_at) / RFU PIWIL2 (11732686_x_at) / Fold change /veh PIWIL2 (11732686_x_at) / RFU ORM1 (11744905_x_at) / Fold change /veh ORM1 (11744905_x_at) / RFU CCDC152 (11743942_at) / Fold change /veh CCDC152 (11743942_at) / RFU ECM1 (11717891_a_at) / Fold change /veh ECM1 (11717891_a_at) / RFU IL23R (11748794_a_at) / Fold change /veh IL23R (11748794_a_at) / RFU TNFAIP8L3 (11732012_x_at) / Fold change /veh TNFAIP8L3 (11732012_x_at) / RFU MBOAT4 (11741988_at) / Fold change /veh MBOAT4 (11741988_at) / RFU 11764193_at / Fold change /veh 11764193_at / RFU TMEM53 (11763286_at) / Fold change /veh TMEM53 (11763286_at) / RFU MAGEB2 (11727129_at) / Fold change /veh MAGEB2 (11727129_at) / RFU TMEM200A (11744735_a_at) / Fold change /veh TMEM200A (11744735_a_at) / RFU CCDC152 (11751479_a_at) / Fold change /veh CCDC152 (11751479_a_at) / RFU FAM211A (11726209_a_at) / Fold change /veh FAM211A (11726209_a_at) / RFU RGS16 (11746705_a_at) / Fold change /veh RGS16 (11746705_a_at) / RFU VCAN (11755009_s_at) / Fold change /veh VCAN (11755009_s_at) / RFU RHOB (11743442_s_at) / Fold change /veh RHOB (11743442_s_at) / RFU RGS16 (11720943_a_at) / Fold change /veh RGS16 (11720943_a_at) / RFU RGS16 (11720944_at) / Fold change /veh RGS16 (11720944_at) / RFU, VPS4B / Fold change vs veh, VPS4B / RFU, CREB1 / Fold change vs veh, CREB1 / RFU, DNAJC13 / Fold change vs veh, DNAJC13 / RFU, GNAQ / Fold change vs veh, GNAQ / RFU, CDK5R1 / Fold change vs veh, CDK5R1 / RFU, ZRANB3 / Fold change vs veh, ZRANB3 / RFU, CUL4A / Fold change vs veh, CUL4A / RFU, CCNY / Fold change vs veh, CCNY / RFU, UFL1 / Fold change vs veh, UFL1 / RFU, COG3 / Fold change vs veh, COG3 / RFU, DIAPH2 / Fold change vs veh, DIAPH2 / RFU, SKA2 / Fold change vs veh, SKA2 / RFU, AFF3 / Fold change vs veh, AFF3 / RFU, LMF1 / Fold change vs veh, LMF1 / RFU, IPO11 / Fold change vs veh, IPO11 / RFU, DFFB / Fold change vs veh, DFFB / RFU, FOXP1 / Fold change vs veh, FOXP1 / RFU, CARD8 / Fold change vs veh, CARD8 / RFU, STRN3 / Fold change vs veh, STRN3 / RFU, ADK / Fold change vs veh, ADK / RFU, RASSF2 / Fold change vs veh, RASSF2 / RFU, WIPF1 / Fold change vs veh, WIPF1 / RFU, LARP1B / Fold change vs veh, LARP1B / RFU, RASA1 / Fold change vs veh, RASA1 / RFU, RB1 / Fold change vs veh, RB1 / RFU, PPFIA1 / Fold change vs veh, PPFIA1 / RFU, MAT2A / Fold change vs veh, MAT2A / RFU, CCT5 / Fold change vs veh, CCT5 / RFU, WDR92 / Fold change vs veh, WDR92 / RFU, CUX1 / Fold change vs veh, CUX1 / RFU, TTC7A / Fold change vs veh, TTC7A / RFU, TMEM135 / Fold change vs veh, TMEM135 / RFU, DEPTOR / Fold change vs veh, DEPTOR / RFU, CPM / Fold change vs veh, CPM / RFU, DNAJB6 / Fold change vs veh, DNAJB6 / RFU, CACNA2D3 / Fold change vs veh, CACNA2D3 / RFU, DTX4 / Fold change vs veh, DTX4 / RFU, TFCP2 / Fold change vs veh, TFCP2 / RFU, GMCL1 /// GMCL1P1 / Fold change vs veh, GMCL1 /// GMCL1P1 / RFU, AEBP2 / Fold change vs veh, AEBP2 / RFU, SNHG1 /// SNORD22 /// SNORD25 /// SNORD26 /// SNORD27 /// SNORD28 /// SNORD29 /// SNORD31 / Fold change vs veh, SNHG1 /// SNORD22 /// SNORD25 /// SNORD26 /// SNORD27 /// SNORD28 /// SNORD29 /// SNORD31 / Fold change (Aza/veh), C12orf56 (ProbeSet 11735607_a_at) / Fold change (ACY-1035/veh), C12orf56 (ProbeSet 11735607_a_at) / Fold change (Aza/veh), FGFR1OP (ProbeSet 11751329_s_at) / Fold change (ACY-1035/veh), FGFR1OP (ProbeSet 11751329_s_at) / Fold change (Aza/veh), VPS36 (ProbeSet 11739960_a_at) / Fold change (ACY-1035/veh), VPS36 (ProbeSet 11739960_a_at) / RFU SYPL1 (11715823_x_at) / Fold change /veh SYPL1 (11715823_x_at) / RFU IGFBP7 (11715501_s_at) / Fold change /veh IGFBP7 (11715501_s_at) / RFU REEP3 (11722064_at) / Fold change /veh REEP3 (11722064_at) / RFU IGLL1 (11728026_x_at) / Fold change /veh IGLL1 (11728026_x_at): dose or concentration left out as unconfirmed", "details": "ProbeSet 11717702_a_at; LIST D"}
{"smiles": "Nc1ncn([C@@H]2O[C@H](CO)[C@@H](O)[C@H]2O)c(=O)n1", "note": "[azacitidine]", "values": [{"measurement": "RFU, RB1", "value": 184.53, "unit": "RFU"}]}
